Test results from US8569298B2, “Pyridine compounds” (Astrazeneca AB, priority 2008, dated 2013).

Target: T1, FAK enzyme (6 His tagged kinase domain, GenBank NP—722560) (Homo sapiens, UniProt Q05397)
T1 construct: 6 His; made in house; host or cells: insect cell culture infected with baculovirus
Assay: In vitro enzyme assay (a): sandwich ELISA of FAK tyrosine kinase activity on polyGAT peptide, TMB colorimetric endpoint
Assay type: biochemical
Conditions: in vitro Enzyme Assay test (a); ATP at Km; geometric mean of n > 1 measurements, values marked * tested once
Outline: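 Recombinant His-tagged FAK kinase domain (baculovirus/insect cells) phosphorylated plate-coated polyGAT with ATP at Km, MgCl2/MnCl2, HEPES pH 7.4, 25 min at room temperature before EDTA stop. Phosphotyrosine detected by HRP-4G10 antibody and TMB absorbance at 450 nm; IC50 from 12-point curve anchored to DMSO and staurosporine controls.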

T1 sequence (Q05397 422-680 limits assumed): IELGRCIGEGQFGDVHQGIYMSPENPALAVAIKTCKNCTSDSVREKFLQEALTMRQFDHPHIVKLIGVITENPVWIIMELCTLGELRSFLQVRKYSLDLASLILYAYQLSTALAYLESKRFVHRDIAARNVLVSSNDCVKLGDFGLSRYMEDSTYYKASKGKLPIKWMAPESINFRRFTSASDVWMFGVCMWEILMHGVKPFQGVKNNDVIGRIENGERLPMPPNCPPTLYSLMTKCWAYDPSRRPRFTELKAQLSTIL

Compound | IC50 [nM]
CNC(=O)c1ccc(Cl)cc1Nc1cc(Nc2cn(C)nc2C)ncc1C(F)(F)F [Example 10.09, 4-chloro-2-[[2-[(1,3-dimethylpyrazol-4-yl)amino]-5-(trifluoromethyl)-4-pyridyl]amino]-N-methyl-benzamide] | 7
CNC(=O)c1cc(SC)ccc1Nc1cc(Nc2cn(C)nc2C)ncc1C(F)(F)F [Example 10.10, 2-[[2-[(1,3-dimethylpyrazol-4-yl)amino]-5-(trifluoromethyl)-4-pyridyl]amino]-N-methyl-5-methylsulfanyl-benzamide] | 11
CNC(=O)c1cc(N2CCOCC2)ccc1Nc1cc(Nc2cn(C)nc2C)ncc1C(F)(F)F [Example 10.11, 2-[[2-[(1,3-dimethylpyrazol-4-yl)amino]-5-(trifluoromethyl)-4-pyridyl]amino]-N-methyl-5-morpholino-benzamide] | 26
CNC(=O)c1ccc(S(C)(=O)=O)cc1Nc1cc(Nc2cn(C)nc2C)ncc1C(F)(F)F [Example 10.13, 2-[[2-[(1,3-dimethylpyrazol-4-yl)amino]-5-(trifluoromethyl)-4-pyridyl]amino]-N-methyl-4-methylsulfonyl-benzamide] | 462
CNC(=O)c1c(Nc2cc(Nc3cc(C)nn3C)ncc2C(F)(F)F)cccc1OC [Example 11.01, 2-[[2-[(2,5-dimethylpyrazol-3-yl)amino]-5-(trifluoromethyl)-4-pyridyl]amino]-6-methoxy-N-methyl-benzamide] | 5
CNC(=O)c1nn(C)cc1Nc1cc(Nc2cccc3c2C(=O)N(C)CC3)c(Cl)cn1 [Example 12.01, 4-[[5-chloro-4-[(2-methyl-1-oxo-3,4-dihydroisoquinolin-8-yl)amino]-2-pyridyl]amino]-N,1-dimethyl-pyrazole-3-carboxamide] | 915
CN(C)C(=O)c1nn(C)cc1Nc1cc(Nc2cccc3c2C(=O)N(C)CC3)c(Cl)cn1 [Example 12.02, 4-[[5-chloro-4-[(2-methyl-1-oxo-3,4-dihydroisoquinolin-8-yl)amino]-2-pyridyl]amino]-N,N,1-trimethyl-pyrazole-3-carboxamide] | 1360
Cc1n[nH]cc1Nc1cc(Nc2cccc3c2C(=O)N(C)CC3)c(Cl)cn1 [Example 12.03, 8-[[5-chloro-2-[(3-methyl-1H-pyrazol-4-yl)amino]-4-pyridyl]amino]-2-methyl-3,4-dihydroisoquinolin-1-one] | 2
COCc1nn(C)cc1Nc1cc(Nc2cccc3c2C(=O)N(C)CC3)c(Cl)cn1 [Example 12.04, 8-[[5-chloro-2-[[3-(methoxymethyl)-1-methyl-pyrazol-4-yl]amino]-4-pyridyl]amino]-2-methyl-3,4-dihydroisoquinolin-1-one] | 22
CN1CCc2cccc(Nc3cc(Nc4cn(C)nc4C#N)ncc3Cl)c2C1=O [Example 12.05, 4-[[5-chloro-4-[(2-methyl-1-oxo-3,4-dihydroisoquinolin-8-yl)amino]-2-pyridyl]amino]-1-methyl-pyrazole-3-carbonitrile] | 20
COc1nn(C)cc1Nc1cc(Nc2cccc3c2C(=O)N(C)CC3)c(Cl)cn1 [Example 12.06, 8-[[5-chloro-2-[(3-methoxy-1-methyl-pyrazol-4-yl)amino]-4-pyridyl]amino]-2-methyl-3,4-dihydroisoquinolin-1-one] | 8
CNC(=O)c1ccccc1Nc1cc(Nc2cn(C)nc2C(=O)NC)ncc1C(F)(F)F [Example 12.07, N,1-dimethyl-4-[[4-[[2-(methylcarbamoyl)phenyl]amino]-5-(trifluoromethyl)-2-pyridyl]amino]pyrazole-3-carboxamide] | 171
CNC(=O)c1ccccc1Nc1cc(Nc2cn(C)nc2C(=O)N(C)C)ncc1C(F)(F)F [Example 12.08, N,N,1-trimethyl-4-[[4-[[2-(methylcarbamoyl)phenyl]amino]-5-(trifluoromethyl)-2-pyridyl]amino]pyrazole-3-carboxamide] | 482
CNC(=O)c1ccccc1Nc1cc(Nc2c[nH]nc2C)ncc1C(F)(F)F [Example 12.09, N-methyl-2-[[2-[(3-methyl-1H-pyrazol-4-yl)amino]-5-(trifluoromethyl)-4-pyridyl]amino]benzamide] | 3
CNC(=O)c1ccccc1Nc1cc(Nc2cn(C)nc2COC)ncc1C(F)(F)F [Example 12.10, 2-[[2-[[3-(methoxymethyl)-1-methyl-pyrazol-4-yl]amino]-5-(trifluoromethyl)-4-pyridyl]amino]-N-methyl-benzamide] | 10
CNC(=O)c1ccccc1Nc1cc(Nc2cn(C)nc2C#N)ncc1C(F)(F)F [Example 12.11, 2-[[2-[(3-cyano-1-methyl-pyrazol-4-yl)amino]-5-(trifluoromethyl)-4-pyridyl]amino]-N-methyl-benzamide] | 15
CNC(=O)c1ccccc1Nc1cc(Nc2cn(C)nc2OC)ncc1C(F)(F)F [Example 12.12, 2-[[2-[(3-methoxy-1-methyl-pyrazol-4-yl)amino]-5-(trifluoromethyl)-4-pyridyl]amino]-N-methyl-benzamide] | 3
Cc1nn(C(C)C)cc1Nc1cc(Nc2cccc3c2C(=O)N(C)CC3)c(Cl)cn1 [Example 13.01, 8-[[5-chloro-2-[(1-isopropyl-3-methyl-pyrazol-4-yl)amino]-4-pyridyl]amino]-2-methyl-3,4-dihydroisoquinolin-1-one] | 13

The remaining lines, values ahead:

IC50 [nM] | Compound
21 | CNC(=O)c1ccccc1Nc1cc(Nc2cn(C(C)C)nc2C)ncc1C(F)(F)F [Example 13.02, 2-[[2-[(1-isopropyl-3-methyl-pyrazol-4-yl)amino]-5-(trifluoromethyl)-4-pyridyl]amino]-N-methyl-benzamide]
50 | CNC(=O)c1ccccc1Nc1cc(Nc2cn(C(F)F)nc2C)ncc1C(F)(F)F [Example 13.03, 2-[[2-[[1-(difluoromethyl)-3-methyl-pyrazol-4-yl]amino]-5-(trifluoromethyl)-4-pyridyl]amino]-N-methyl-benzamide]
23 | Cc1nn(C(F)F)cc1Nc1cc(Nc2cccc3c2C(=O)N(C)CC3)c(Cl)cn1 [Example 13.04, 8-[[5-chloro-2-[[1-(difluoromethyl)-3-methyl-pyrazol-4-yl]amino]-4-pyridyl]amino]-2-methyl-3,4-dihydroisoquinolin-1-one]
4 | Cc1nn(CCO)cc1Nc1cc(Nc2cccc3c2C(=O)N(C)CC3)c(Cl)cn1 [Example 13.05, 8-[[5-chloro-2-[[1-(2-hydroxyethyl)-3-methyl-pyrazol-4-yl]amino]-4-pyridyl]amino]-2-methyl-3,4-dihydroisoquinolin-1-one]
6 | CNC(=O)c1ccccc1Nc1cc(Nc2cn(CCO)nc2C)ncc1C(F)(F)F [Example 13.06, 2-[[2-[[1-(2-hydroxyethyl)-3-methyl-pyrazol-4-yl]amino]-5-(trifluoromethyl)-4-pyridyl]amino]-N-methyl-benzamide]
4 | CONC(=O)c1c(Nc2cc(Nc3cn(C)nc3C)ncc2C(F)(F)F)cccc1OC [Example 14.01, 2-[[2-[(1,3-dimethylpyrazol-4-yl)amino]-5-(trifluoromethyl)-4-pyridyl]amino]-N,6-dimethoxy-benzamide]
2 | CONC(=O)c1ccccc1Nc1cc(Nc2cc(C)nn2C)ncc1C(F)(F)F [Example 14.02, 2-[[2-[(2,5-dimethylpyrazol-3-yl)amino]-5-(trifluoromethyl)-4-pyridyl]amino]-N-methoxy-benzamide]
6 | CONC(=O)c1c(Nc2cc(Nc3cc(C)nn3C)ncc2C(F)(F)F)cccc1OC [Example 14.03, 2-[[2-[(2,5-dimethylpyrazol-3-yl)amino]-5-(trifluoromethyl)-4-pyridyl]amino]-N,6-dimethoxy-benzamide]
4 | CONC(=O)c1ccc(F)cc1Nc1cc(Nc2cn(C)nc2C)ncc1C(F)(F)F [Example 15.01, 2-[[2-[(1,3-dimethylpyrazol-4-yl)amino]-5-(trifluoromethyl)-4-pyridyl]amino]-4-fluoro-N-methoxy-benzamide]
3 | CONC(=O)c1ccc(F)cc1Nc1cc(Nc2cc(C)nn2C)ncc1C(F)(F)F [Example 15.02, 2-[[2-[(2,5-dimethylpyrazol-3-yl)amino]-5-(trifluoromethyl)-4-pyridyl]amino]-4-fluoro-N-methoxy-benzamide]
6 | CNC(=O)c1ccc(F)cc1Nc1cc(Nc2cc(C)nn2C)ncc1C(F)(F)F [Example 15.03, 2-[[2-[(2,5-dimethylpyrazol-3-yl)amino]-5-(trifluoromethyl)-4-pyridyl]amino]-4-fluoro-N-methyl-benzamide]
24 | CNC(=O)c1c(Nc2cc(Nc3c(C)nn(C)c3C)ncc2C(F)(F)F)cccc1OC [Example 15.04, 2-Methoxy-N-methyl-6-[[5-(trifluoromethyl)-2-[(1,3,5-trimethylpyrazol-4-yl)amino]-4-pyridyl]amino]benzamide]
10 | CONC(=O)c1c(Nc2cc(Nc3c(C)nn(C)c3C)ncc2C(F)(F)F)cccc1OC [Example 15.05, N,2-dimethoxy-6-[[5-(trifluoromethyl)-2-[(1,3,5-trimethylpyrazol-4-yl)amino]-4-pyridyl]amino]benzamide]
5 | CONC(=O)c1ccccc1Nc1cc(Nc2c(C)nn(C)c2C)ncc1C(F)(F)F [Example 15.06, N-methoxy-2-[[5-(trifluoromethyl)-2-[(1,3,5-trimethylpyrazol-4-yl)amino]-4-pyridyl]amino]benzamide]
113 | CCONC(=O)c1ccccc1Nc1cc(Nc2cc(C)nn2C)ncc1C(F)(F)F [Example 15.07, 2-[[2-[(2,5-dimethylpyrazol-3-yl)amino]-5-(trifluoromethyl)-4-pyridyl]amino]-N-ethoxy-benzamide]
620 | Cc1cc(Nc2cc(Nc3ccccc3C(=O)NOCCO)c(C(F)(F)F)cn2)n(C)n1 [Example 15.08, 2-[[2-[(2,5-dimethylpyrazol-3-yl)amino]-5-(trifluoromethyl)-4-pyridyl]amino]-N-(2-hydroxyethoxy)benzamide]
